From patent US12533341B2, “Small molecule inhibitors of voltage-gated sodium channel 1.7 and methods of using same” (Duke University, priority 2019, dated 2026) come the findings set out here.

“Also recorded” adds a separate entry of the source.

Experiment [1] deals with formalin-induced inflammatory pain. Nature of the experiment: Formalin-induced nociceptive behavioral test. Type of experiment: in vivo, mouse. The following applies: mice. As to the method: The formalin test was conducted following our previously published protocol (Chen, Ji, et al. 2018; Neurosci Bull; 34: 98-108). The animals were acclimatized in a transparent acrylic observation chamber for 2 days before test. Vehicle or active compound were administered intrathecally, intraperitoneally, or intraplantarly, 30 min later followed by an intraplantar injection of 20 μL of 5% formalin. After the formalin injection, mice were immediately placed back in the observation chamber, and videoed for 40 min. The videos were analyzed after experiments in a double blinded way. We assessed formalin-evoked spontaneous pain by measuring the time (in seconds) mice spent on licking or flinching the affected paw every 5 min for […]. Phase I and Phase II were defined as periods of 0-10 min and 10-40 min, respectively.
For intrathecal injection, spinal cord puncture was made by a Hamilton microsyringe (Hamilton Company, Reno, Nevada) with a 30-G needle between the L5 and L6 level to deliver reagents (5 μL) to the cerebral spinal fluid. For intraperitoneal injection, Vehicle or drug was injected into peritoneal with a 30-G needle. For intraplantar injection, 20 μL vehicle or drug was injected into the surface of the hind paw.

Experiment [2] has as its system histamine-induced acute itch. Nature of the experiment: Histamine-induced itch model. Conditions: listed as DA-0218. Type of experiment: in vivo, mouse. As to the method: Itch behavior was tested blindly. Mice were habituated to the testing environment daily for at least two days before testing. Animals were shaved at the back of the neck in an area of approximately 15×10 mm on the day before the injection of pruritic agent. Animals were put in small plastic chambers (14×18×12 cm) on an elevated metal mesh floor and allowed 30 min for habituation before examination. Mice were then briefly removed from the chamber and given an intradermal injection (50 μL) of 500 μg of histamine in the nape of the neck. After the injection, mouse behaviors were video-recorded and the number of scratches in every 5 min for 30 min was counted. A scratch was counted when a mouse lifted its hindpaw to scratch the shaved region and returned the paw to the floor or to the mouth.

Turning to `O=C(CC(c1cccc(Oc2ccccc2)c1)c1cn(Cc2ccccc2)c2ccccc12)NCCN1CCCC1` (stereo not drawn) [Compound 9, 3-(1-benzyl-1H-indol-3-yl)-3-(3-phenoxyphenyl)-N-(2-(pyrrolidin-1-yl)ethyl)propanamide], the “inhibition of formalin-induced pain in Phase II” value is reported as 76% in experiment [1] (intraperitoneal 30 mg/kg) and “significant inhibition” in experiment [1] (intraplantar 60 nmol). Also, the “effect on formalin Phase I response” value in experiment [1] (intrathecal 30 nmol) was “reduced Phase I response”. Also, in experiment [1] (intrathecal (3, 10 and 30 nmol)), the “inhibition of formalin-induced second-phase (Phase II) pain” value was determined as 80%. Moreover, the “effect on histamine-induced scratches” value in experiment [2] (intrathecal 30 nmol, 500 μg histamine intradermal, 30 min) is reported as “statistically significant reduction; also recorded: effective against histamine-induced itch”. Further, the “effect on histamine-induced scratch bouts” value in experiment [2] (intrathecal, dose response) is listed as “inhibited histamine-induced acute itch; also recorded: dose-dependent reduction”.
